From US12240825B2, “Oxexin 1 receptor antagonists” (Heptares Therapeutics Limited, priority 2019, dated 2025) come the findings set out here.

Experiment [1] deals with T1, Human OX2 receptor (Homo sapiens (Human), UniProt O43614). The experiment in a line: [3H]-radioligand binding assay, OX2. The note with it: for pKi average OX2: competition binding, membranes of SF21 cells, Ki by Cheng-Prusoff. The source says: (§1) Cloning, Baculovirus generation, large-scale infection of SF21 cells and membrane preparation. Human OX1 or OX2 receptor were cloned into Invitrogen's (ThermoFisher Scientific, UK) Bac-to-Bac Baculovirus Expression System. P0 baculovirus was generated by transfecting SF9 cells with bacmid DNA using Cellfectin® II transfection reagent (ThermoFisher Scientific, UK, Catalog number 10362-100). Following P0 generation P1 virus was then generated ready for large scale infection and membrane preparation. SF21 cells were grown in expression medium ESF921 (Expression Systems, USA, catalog number 96-001-01) supplemented with 10% heat-inactivated FBS and 1% Pen/Strep and were infected at a cell density of 2.5×10^6 cells/mL and a multiplicity of infection of 1.0 for both human OX1R and OX2R. Incubation was carried out at over 48 h in a shaking incubator set at 27° C. The cell culture was then centrifuged at 2,500 rcf for 10 min at 4° C. The pellets were resuspended in cold PBS supplemented with Roche's Complete EDTA-free protease inhibitor cocktail tablets (Roche Applied Sciences, catalog number 05056489001), 1 mM PMSF and 1 mM EDTA. The resuspended cell paste was then centrifuged at 3,273 rcf for 12 min at 4° C. The supernatant was discarded and the pellet frozen at −80° C. The cell pellet from a 4 L culture was resuspended in buffer containing 50 mM HEPES pH 7.5, 150 mM NaCl, 8 Roche EDTA-Free protease inhibitor cocktail tablets and 1 mM PMSF. The suspension was left stirring at rt for 1 h and then homogenised for 90 s at 9,500 rpm using a VDI 25 (VWR, USA) homogeniser. The cells were then lysed using a Microfluidiser processor M-110L Pneumatic (Microfluidics, USA) at 60 PSI and membranes collected by ultracentrifugation at 204.7 k×g for 1 h. The supernatant was discarded and the pellet was resuspended and homogenised in 90 s at 9,500 rpm in 50 mL (25 mL for each 2 L culture) of buffer containing 50 mM Hepes pH 7.5, 150 mM NaCl, 3 Roche EDTA-free protease inhibitor cocktail tablets and 1 mM PMSF. The resulting membranes were then stored at −80° C.
T1 sequence (O43614 whole entry): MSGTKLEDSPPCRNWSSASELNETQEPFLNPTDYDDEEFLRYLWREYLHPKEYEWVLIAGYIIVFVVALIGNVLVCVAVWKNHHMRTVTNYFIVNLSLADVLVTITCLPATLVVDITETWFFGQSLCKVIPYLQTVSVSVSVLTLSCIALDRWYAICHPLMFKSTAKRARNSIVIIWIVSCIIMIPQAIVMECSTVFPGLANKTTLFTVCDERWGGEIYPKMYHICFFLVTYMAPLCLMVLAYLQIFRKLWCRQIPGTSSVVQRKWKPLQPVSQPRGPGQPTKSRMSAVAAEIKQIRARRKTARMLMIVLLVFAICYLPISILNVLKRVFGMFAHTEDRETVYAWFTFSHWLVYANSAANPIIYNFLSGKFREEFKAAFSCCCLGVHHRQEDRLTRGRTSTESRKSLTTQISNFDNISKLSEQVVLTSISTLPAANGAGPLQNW
(§2) [^3H]-radioligand binding assay. After thawing, membrane homogenates were resuspended in the binding buffer (8.5 mM HEPES, pH 7.4, 1.3 mM CaCl2, 1.2 mM MgSO4, 118 mM NaCl, 4.7 mM KCl, 4 mM NaHCO3, 1.2 mM KH2PO4, 11 mM glucose) to a final assay concentration of 6.4 μg (OX1) or 1.4 μg (OX2) protein per well. Saturation isotherms were determined by the addition of various concentrations (0-30 nM) of [^3H]-4-(2,6-difluoro-4-methoxybenzyl)-2-(5,6-dimethoxypyridin-3-yl)-2H-1,2,4-benzothiadiazin-3(4H)-one 1,1-dioxide (Christopher et al, MedChemComm., 2015, 6, 947-955) in a total reaction volume of 250 μL for 90 min at rt. At the end of the incubation, membranes were filtered onto a 96-well GF/B filter pre-incubated with 0.5% polyethylenimine, with a Tomtec cell harvester and washed 5 times with 0.5 mL distilled water. Non-specific binding (NSB) was measured in the presence of 3.33 μM [4-(5-chloro-1,3-benzoxazol-2-yl)-7-methyl-1,4-diazepan-1-yl][5-methyl-2-(2H-1,2,3-triazol-2-yl)phenyl]methanone (Wertz et al, Angew. Chem. Int. Ed., 2011, 50, 11511-11515). Radioactivity on the filter was counted (1 min) on a Microbeta radiometric plate counter (Perkin Elmer) after addition of 50 μL of scintillation fluid (LabLogic: Part #SG-BXX-14). […] IC50 values were derived from the inhibition curve and the equilibrium dissociation constant (Ki) values were calculated using the Cheng-Prusoff equation.

Experiment [2] concerns the target T2, Human OX1 receptor (Homo sapiens (Human), UniProt O43613). Briefly: [3H]-radioligand binding assay, OX1. The note with it: for pKi average OX1: competition binding, membranes of SF21 cells, Ki by Cheng-Prusoff.
Description: as §1, §2

In experiment [3] the target is T1, Human OX2 receptor. Briefly: IPone accumulation assay, CHO cells expressing OX2. It counts as cell-based. The note with it: antagonism of orexin A (EC80 40 nM)-induced inositol phosphate turnover, read-out: fpKb average OX2 (converted). On the procedure: Generation of CHO stable cell lines expressing the human OX1R and OX2R. Stable cell lines for the human OX1R and OX2R receptors were generated through the transfection of CHO cells using the transfection reagent Genejuice (Novagen number 70967) and cDNA coding for either the human OX1R or OX2R. Cells were cultured in Sigma Nutrient Mixture F-12 Ham media (catalog number N6658) supplemented with 10% heat-inactivated FBS. Forty-eight hours after transfection, cells were harvested and placed under geneticin selection by culturing in Sigma Nutrient Mixture F-12 Ham media supplemented with 10% heat-inactivated FBS and geneticin (ThermoFisher Catalog number: 10131035). Selection of the final stable clone for each receptor was made on the basis of receptor expression, assay signal to noise and robustness though increasing passage. Selected clones for the human OX1R and OX2R were then frozen down into liquid nitrogen using Cell Freezing Medium-DMSO (Sigma-Aldrich catalog number: C6164). IPone accumulation assay. A CHO cell line stably expressing either human OX1 or OX2 receptor was used with the IPone HTRF assay kit (CisBio: Part #62[…]) to measure receptor activation. The assay was optimised to measure the ability (potency; fpKb) of antagonists to reduce agonist (orexin A)-induced inositol phosphate turnover. Briefly, cells were plated onto half area 96-well white walled plates at a density of 12,500 cells/well. Sixteen hours post-plating cell growth media was replaced with antagonist concentration-response curve diluted in stimulation buffer (supplied with the kit). Cells were incubated in a humidified incubator (37° C.) for 30 min before an EC80 challenge concentration ( 20 nM (OX1) and 40 nM (OX2)) of orexin A (Tocris catalogue number 1455). After 30 min stimulation in a humidified incubator (37° C.) the assay was terminated by the addition of detection mixture as per manufacturer's instructions. The concentration of compound which reduced orexin-A stimulated turnover of inositol phosphates by 50% (IC50) was calculated by fitting to a four parameter sigmoidal dose response curve. The IC50 values were converted to fpKB values using the orexin A pEC50 value estimated on each plate as well as the challenge concentration interpolated from the orexin A control curve.

For experiment [4], the target named is T2, Human OX1 receptor. Briefly: IPone accumulation assay, CHO cells expressing OX1. The class given is cell-based. The note with it: antagonism of orexin A (EC80 ~20 nM)-induced inositol phosphate turnover, read-out: fpKb average OX1 (converted). On the procedure: Generation of CHO stable cell lines expressing the human OX1R and OX2R. Stable cell lines for the human OX1R and OX2R receptors were generated through the transfection of CHO cells using the transfection reagent Genejuice (Novagen number 70967) and cDNA coding for either the human OX1R or OX2R. Cells were cultured in Sigma Nutrient Mixture F-12 Ham media (catalog number N6658) supplemented with 10% heat-inactivated FBS. Forty-eight hours after transfection, cells were harvested and placed under geneticin selection by culturing in Sigma Nutrient Mixture F-12 Ham media supplemented with 10% heat-inactivated FBS and geneticin (ThermoFisher Catalog number: 10131035). Selection of the final stable clone for each receptor was made on the basis of receptor expression, assay signal to noise and robustness though increasing passage. Selected clones for the human OX1R and OX2R were then frozen down into liquid nitrogen using Cell Freezing Medium-DMSO (Sigma-Aldrich catalog number: C6164).
IPone accumulation assay. A CHO cell line stably expressing either human OX1 or OX2 receptor was used with the IPone HTRF assay kit (CisBio: Part #62IPAPEJ) to measure receptor activation. The assay was optimised to measure the ability (potency; fpKb) of antagonists to reduce agonist (orexin A)-induced inositol phosphate turnover. Briefly, cells were plated onto half area 96-well white walled plates at a density of 12,500 cells/well. Sixteen hours post-plating cell growth media was replaced with antagonist concentration-response curve diluted in stimulation buffer (supplied with the kit). Cells were incubated in a humidified incubator (37° C.) for 30 min before an EC80 challenge concentration (˜20 nM (OX1) and 40 nM (OX2)) of orexin A (Tocris catalogue number 1455). After 30 min stimulation in a humidified incubator (37° C.) the assay was terminated by the addition of detection mixture as per manufacturer's instructions. The concentration of compound which reduced orexin-A stimulated turnover of inositol phosphates by 50% (IC50) was calculated by fitting to a four parameter sigmoidal dose response curve. The IC50 values were converted to fpKB values using the orexin A pEC50 value estimated on each plate as well as the challenge concentration interpolated from the orexin A control curve.

T2 sequence (O43613 whole entry): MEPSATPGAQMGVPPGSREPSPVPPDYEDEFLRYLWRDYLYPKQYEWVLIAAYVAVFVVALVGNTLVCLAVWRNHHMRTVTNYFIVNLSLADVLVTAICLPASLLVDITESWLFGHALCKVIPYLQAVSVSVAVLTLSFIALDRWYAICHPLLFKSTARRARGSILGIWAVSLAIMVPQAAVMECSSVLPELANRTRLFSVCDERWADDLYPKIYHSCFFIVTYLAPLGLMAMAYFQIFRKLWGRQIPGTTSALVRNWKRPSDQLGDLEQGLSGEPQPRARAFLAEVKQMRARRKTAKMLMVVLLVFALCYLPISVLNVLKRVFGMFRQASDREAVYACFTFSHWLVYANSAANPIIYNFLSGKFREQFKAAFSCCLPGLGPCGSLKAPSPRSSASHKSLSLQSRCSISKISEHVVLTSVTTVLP

With `Nc1ccc(-c2ncc(F)cn2)c(C(=O)N[C@H]2CCC[C@@H]2COc2ccc(F)cc2)n1` [Example 22, 6-amino-N-[(1S,2S)-2-[(4-fluorophenoxy)methyl]cyclopentyl]-3-(5-fluoropyrimidin-2-yl)pyridine-2-carboxamide], the “pKi average OX2” value at Human OX2 receptor [1] is on record as 6.3. In addition, at Human OX1 receptor [2], the “pKi average OX1” value is given as 8.5. Besides, the Kb at Human OX2 receptor [3] was over 1000 nM; on Human OX1 receptor [4], 7.94 nM.
For the compound `COC(=O)Nc1ccc(-n2nccn2)c(C(=O)N[C@H]2CCC[C@@H]2COc2ccc(F)cc2)n1` [Example 10, methyl N-[6-[[(1S,2S)-2-[(4-fluorophenoxy)methyl]cyclopentyl]carbamoyl]-5-(triazol-2-yl)-2-pyridyl]carbamate], at Human OX2 receptor [1], the “pKi average OX2” value is given as under 5.9. Further, the “pKi average OX1” value at Human OX1 receptor [2] is 8.1. Besides, the Kb at Human OX2 receptor [3] was over 794 nM; on Human OX1 receptor [4], 79.4 nM.
For `CC(=O)Nc1cc(C(=O)N[C@H]2CCC[C@@H]2COc2ccc(F)cc2)c(-c2ncccn2)cn1` [Example 24, 2-acetamido-N-[(1S,2S)-2-[(4-fluorophenoxy)methyl]cyclopentyl]-5-pyrimidin-2-yl-pyridine-4-carboxamide] the same measures were 6.6, 8.3, over 398 nM and 1.26 nM.
On the same counts, the results for `CC(=O)Nc1ccc(-c2ncc(F)cn2)c(C(=O)N[C@H]2CCC[C@@H]2COc2ccc(F)cc2)n1` [Example 21, 6-acetamido-N-[(1S,2S)-2-[(4-fluorophenoxy)methyl]cyclopentyl]-3-(5-fluoropyrimidin-2-yl)pyridine-2-carboxamide] are 5.6, 8.2, over 794 nM and 20 nM.
On the same counts, the results for `O=C(N[C@H]1CCC[C@@H]1COc1ccc(F)cc1)c1nc(NC(=O)C(F)F)ccc1-n1nccn1` [Example 11, 6-[(2,2-difluoroacetyl)amino]-N-[(1S,2S)-2-[(4-fluorophenoxy)methyl]cyclopentyl]-3-(triazol-2-yl)pyridine-2-carboxamide] are under 5.8, 7.9, over 1000 nM and 31.6 nM.
On to `CC(=O)Nc1ccc(-n2nccn2)c(C(=O)N[C@H]2CCC[C@@H]2COc2ccc(Cl)cc2)n1` [Example 6, 6-acetamido-N-[(1S,2S)-2-[(4-chlorophenoxy)methyl]cyclopentyl]-3-(triazol-2-yl)pyridine-2-carboxamide], for which the “pKi average OX2” value on Human OX2 receptor [1] is on record as under 5.2. Also, on Human OX1 receptor [2], the “pKi average OX1” value is 8.1. For the same compound, the Kb is over 631 nM at Human OX2 receptor [3] and 7.94 nM on Human OX1 receptor [4].
On to `CC(=O)Nc1ccc(-c2ncccn2)c(C(=O)N(C)[C@H]2CCC[C@@H]2COc2ccc(F)cc2)n1` [Example 18, 6-acetamido-N-[(1S,2S)-2-[(4-fluorophenoxy)methyl]cyclopentyl]-N-methyl-3-pyrimidin-2-yl-pyridine-2-carboxamide], for which the “pKi average OX2” value on Human OX2 receptor [1] is 6.8. Besides, on Human OX1 receptor [2], the “pKi average OX1” value is 8.6. Also, the figures for the Kb at Human OX2 receptor [3] and on Human OX1 receptor [4] were over 501 nM and 0.631 nM, respectively.
For the compound `COc1cc(F)c(CN2C(=O)N(c3cnc(OC)c(OC)c3)S(=O)(=O)c3ccccc32)c(F)c1` [[^3H]-4-(2,6-difluoro-4-methoxybenzyl)-2-(5,6-dimethoxypyridin-3-yl)-2H-1,2,4-benzothiadiazin-3(4H)-one 1,1-dioxide, reference compound], the Kd was 0.75 nM on Human OX2 receptor [1] (saturation isotherms) and 1.5 nM on Human OX1 receptor [2] (saturation isotherms).
With `Nc1ccc(-c2ncccn2)c(C(=O)N[C@H]2CCC[C@@H]2COc2ccc(F)cc2)n1` [Example 12, 6-amino-N-[(1S,2S)-2-[(4-fluorophenoxy)methyl]cyclopentyl]-3-pyrimidin-2-yl-pyridine-2-carboxamide], the “pKi average OX1” value on Human OX1 receptor [2] is listed as 8.2. Also, the Kb at Human OX1 receptor [4] is 5.01 nM.
As for `O=C(N[C@H]1CCC[C@@H]1COc1ccc(F)cc1)c1nc(NC(=O)C2CC2)ccc1-n1nccn1` [Example 13, 6-(cyclopropanecarbonylamino)-N-[(1S,2S)-2-[(4-fluorophenoxy)methyl]cyclopentyl]-3-(triazol-2-yl)pyridine-2-carboxamide], the “pKi average OX2” value at Human OX2 receptor [1] was under 6.0. The “pKi average OX1” value at Human OX1 receptor [2] amounted to 7.8. In addition, on Human OX2 receptor [3], the Kb was over 1000 nM.
